Data taken from patent US5798092A, “Derivatized DTPA complexes pharmaceutical agents containing these compounds, their use, and processes for their production” (Schering Aktiengesellschaft, priority 1989, dated 1998).
One block for each compound: values may come before it.

Assays:
[1] = T1 relaxation (relaxivity) in plasma; assay type: physicochemical
Text: (§1) T1 relaxation (1/mmol·sec) is
(§2) The T1 relaxation (1/mmol·sec) is
(§3) The T1 relaxation (1/mmol·sec) amounts to
(§4) The T1 relaxation (1mmol·sec) is […]

rats [2] = assay: in vivo MRI in rats, T1-weighted spin echo, liver/stomach/osteogenic sarcoma; set-up: species or system rat (female, Lew/Mol); conditions: 0.1 mmol Gd/kg i.v.; for enhancement of the stomach: ranking among the three compounds
Text: The test animals were female rats of the strain Lew/Mol weighing 160-180 g. Prior to imaging, the animals were anesthetized ("Rompun"+"Ketavet") and provided with a catheter in the caudel vein to administer the contrast medium. Imaging took place in an MRI experimental device by General Electric (field strength 2 tesla). First of all, the images (7, 9, 11) were made without contrast medium with a T1 -weighted spin echo sequence (TR=400 msec, TE=20 msec, axial section plane, layer thickness 3 mm). The liver appears in each case with the normal signal intensity; the stomach is darker in tendency than the liver. […] This is due to feed residues, the feed containing manganese in relatively high concentrations (at the time of the test, the animals had been fasting for 6 hours). Animal 3 had been implanted with an osteogenic sarcoma three weeks previously; this sarcoma was of equal contrast in the blank image and could not be defined. The administration of contrast medium took place via the venous catheter with a dose of 0.1 mmol Gd/kg (concentration of the solutions 0.05 mmol Gd/ml in 0.9% NaCl) for all 3 compounds.

[3] = T1 relaxation (relaxivity) in water; assay type: physicochemical
Text: as §1, §2, §3, §4

rats [4] = conditions: at this point in time after administration; no own data shown; cited from earlier work
rats [5] = assay: in vivo NMR imaging in rat with Brown Pearce tumor (spin echo, 2 tesla); set-up: species or system rat (male hairless, Lew/Mol); conditions: 0.06 mmol/kg i.v.
Text: Spin echo scans were made with the NMR tomograph (CSI 2 T) at 2 tesla (TR time of 400 ms and TE time of 20 ms).
The contrast medium was administrated intravenously into a caudal vein of a male hairless rat (Lew/Mol) weighing 190 g, in a dose of 0.06 mmol/kg.

T1 relaxation [1]: 16.35 ± 1.01 mmol⁻¹ s⁻¹
T1 relaxation [3]: 5.81 ± 0.11 mmol⁻¹ s⁻¹
Compound: O=C([O-])CN(CCN(CC(=O)[O-])CC(Cc1ccc(OCc2ccccc2)cc1)N(CC(=O)[O-])CC(=O)[O-])CC(=O)[O-].[Gd+3].[Na+].[Na+] (centres unmarked) [Example 10(c), Disodium Salt of the Gadolinium Complex of 3,6,9-Triaza-3,6,9-tris(carboxymethyl)-4-(4-benzyloxybenzyl)undecanedioic Acid]
enhancement of the liver (rats [2]; after 60 minutes): marked enhancement of the liver
visibility of the tumor (rats [2]; animal 3, osteogenic sarcoma implanted three weeks previously, 60 minutes): clearly visible
absorption of the contrast medium by the tumor (rats [2]; animal 3, osteogenic sarcoma, 60 minutes): not absorbed the contrast medium at all, or only to a lesser proportion
enhancement of the stomach (rats [2]): most strongly

T1 relaxation [1]: 8.69 ± 0.53 mmol⁻¹ s⁻¹
T1 relaxation [3]: 5.33 ± 0.13 mmol⁻¹ s⁻¹
Compound: CCOc1ccc(CC(CN(CCN(CC(=O)[O-])CC(=O)[O-])CC(=O)[O-])N(CC(=O)[O-])CC(=O)[O-])cc1.[Gd+3].[Na+].[Na+] (centres unmarked) [Example 8(c), Disodium Salt of the Gadolinium Complex of 3,6,9-Triaza-3,6,9-tris(carboxymethyl)-4-(4-ethoxybenzyl)undecanedioic Acid]
enhancement of the liver (rats [2]; after 90 minutes): marked enhancement of the liver
enhancement of the stomach (rats [2]): least

T1 relaxation [1]: 6.31 ± 0.15 mmol⁻¹ s⁻¹
T1 relaxation [3]: 4.39 ± 0.12 mmol⁻¹ s⁻¹
Compound: Gadolinium Complex of 3,6,9-Triaza-3,6,9-tris-(carboxymethyl)-4-benzyloxymethylundecanedioic Acid [Example 5(c)]

T1 relaxation [1]: 7.10 ± 0.08 mmol⁻¹ s⁻¹
T1 relaxation [3]: 5.00 ± 0.01 mmol⁻¹ s⁻¹
Compound: Gadolinium Complex of 3,6,9-Triaza-3,6,9-tris-(carboxymethyl)-4-(4-carboxymethoxybenzyl)-undecanedioic Acid [Example 6(c)]

Second part, the compound before the results:

Compound: Gadolinium Complex of 3,6,9-Triaza-3,6,9-tris-(carboxymethyl)-4-benzylundecanedioic Acid [Example 4(d)]
T1 relaxation [1]: 6.89 ± 0.17 mmol⁻¹ s⁻¹
T1 relaxation [3]: 4.54 ± 0.13 mmol⁻¹ s⁻¹

Compound: Gadolinium Complex of 3,6,9-Triaza-3,6,9-tris-(carboxymethyl)-5-(4-methoxybenzyl)undecanedioic Acid [Example 2(c)]
T1 relaxation [1]: 6.61 ± 0.18 mmol⁻¹ s⁻¹
T1 relaxation [3]: 4.17 ± 0.14 mmol⁻¹ s⁻¹

Compound: CCCCOc1ccc(CC(CN(CCN(CC(=O)[O-])CC(=O)[O-])CC(=O)[O-])N(CC(=O)[O-])CC(=O)[O-])cc1.[Gd+3].[Na+].[Na+] (centres unmarked) [Example 9(c), Disodium Salt of the Gadolinium Complex of 3,6,9-Triaza-3,6,9-tris(carboxymethyl)-4-(4-butoxybenzyl)undecanedioic Acid]
T1 relaxation ([1]; unit printed without slash): 14.20±0.98 1mmol·sec
enhancement of the liver (rats [2]; after 60 minutes): marked enhancement of the liver
T1 relaxation ([3]; unit printed without slash): 5.80±0.26 1mmol·sec

Compound: Gadolinium Complex of 3,6,9-Triaza-3,6,9-tris-(carboxymethyl)-4-[4-(4-methoxybenzyloxy)benzyl]-undecanedioic Acid [Example 3(c)]
T1 relaxation [1]: 6.99 ± 0.13 mmol⁻¹ s⁻¹
T1 relaxation [3]: 4.23 ± 0.16 mmol⁻¹ s⁻¹

Compound: CNC[C@H](O)[C@@H](O)[C@H](O)[C@H](O)CO.CNC[C@H](O)[C@@H](O)[C@H](O)[C@H](O)CO.O=C([O-])CN(CCN(CC(=O)[O-])CC(=O)O)CCN(CC(=O)[O-])CC(=O)O.[Gd+3] [Magnevist, dimeglumine salt of Gd DTPA [gadolinium(III)complex of diethylenetriaminepentaacetic acid]]
enhancement of the liver (comparison) (rats [4]): cannot be observed

Compound: COc1ccc(CC(CN(CCN(CC(=O)[O-])CC(=O)[O-])CC(=O)[O-])N(CC(=O)[O-])CC(=O)[O-])cc1.[Gd+3].[Na+].[Na+] (centres unmarked) [Example 1(c) disodium salt, Gadolinium Complex of 3,6,9-Triaza-3,6,9-tris-(carboxymethyl)-4-(4-methoxybenzyl)undecanedioic Acid]
T1 relaxation [1]: 6.89 ± 0.17 mmol⁻¹ s⁻¹
increase in contrast in the stomach (rats [5]; 45 minutes after injection): strong increase in contrast
contrasting of the intestine (rats [5]; 60 minutes after injection): contrasting of the intestine can likewise be observed
contrasting of the renal pelvis (rats [5]; 60 minutes after injection): striking
visualization of the stomach (rats [5]; 60 minutes after injection): good visualization
visualization of the urinary bladder (rats [5]; 60 minutes after injection): good visualization
visualization of the tumor (rats [5]; 60 minutes after injection, Brown Pearce tumor in the thigh): good visualization
contrasting of the renal pelvis (rats [5]; 65 minutes after injection, somewhat different layer): even more improved
contrast enhancement in the zone of the liver (rats [5]; 180 minutes after injection, axial scan): contrast enhancement is likewise clearly recognizable
contrast enhancement in the urinary bladder (rats [5]; one minute after administration): first enhancement is already apparent
T1 relaxation [3]: 4.54 ± 0.13 mmol⁻¹ s⁻¹
